Results on eight compounds are retold here after US8420648B2, “Polymorphs of brimonidine pamoate” (Bausch & Lomb Incorporated, priority 2008, dated 2013).

For data set [1] the following is noted: for XRPD pattern of the solids following moisture sorption analysis: after moisture sorption analysis; for hygroscopicity (in words) / observation upon desorption: moisture sorption analysis; for observation upon desorption: desorption scan; for water adsorbed at 60% RH / water adsorbed at 90% RH: 25° C. How it is done:
Approximately 10 mg of the sample was analyzed in a Pyrex bulb. Each scan utilized a step size of 10% RH and a maximum equilibration time of four hours per point. The sample was dried for one hour at 80° C. following the desorption scan to obtain the dry sample weight and then it was analyzed by XRPD.

The conditions of data set [2]: ambient. The source says: Following one week intervals, samples were isolated by centrifugation and dried in vacuo at ambient temperature overnight and analyzed by XRPD to check for polymorphic form conversion.
Data set [3] can be described thus: Competitive slurries of brimonidine hemi-pamoate forms. The settings on record: for XRPD (1 week): form: competitive slurry of Forms A, RT; for relative stability (conclusion from competitive slurries): competitive slurries in THF or water, one week. It counts as physicochemical.
The procedure of data set [4]: After one week of exposure, the samples were analyzed by XRPD to check for form conversion and HPLC analysis to check for potential degradation. […] Ambient • Detection: 248 nm • Diluent: MeOH • Injection Volume: 5 μl
For data set [5] the following is noted: 88% RH; for Visual inspection (2 week): 2 weeks, inspected for deliquescence. The method, then:
This solution results in 88% RH environment. After two weeks of storage the crystalline form was determined by XRPD and solid inspected for deliquescence.

The conditions of data set [6]: ambient conditions.
The conditions of data set [7]: cited from earlier work.
[8] abbreviates: stored uncapped at 60° C., 1 week.
[9] abbreviates: 60° C., sample exposed for 6 days (footnote).

Like-named read-outs stand apart in the source and are kept apart here.

For `Brc1c(NC2=NCCN2)ccc2nccnc12.Brc1c(NC2=NCCN2)ccc2nccnc12.O=C(O)c1cc2ccccc2c(Cc2c(O)c(C(=O)O)cc3ccccc23)c1O` [Form A, brimonidine hemi-pamoate], in data set [1], the “XRPD pattern of the solids following moisture sorption analysis” value (shortened to “XRPD pattern”) is recorded as “consistent with the Form A starting material”, the “hygroscopicity (in words)” value is “slightly hygroscopic” and the observation upon desorption result was “no hysteresis or indication of hydrate formation”. Besides, in data set [1] (moisture sorption), the “water adsorbed at 60% RH” value stood at 2.2 wt % and the “water adsorbed at 90% RH” value amounted to 2.5 wt %. Moreover, in data set [2] (slurry in THF 1 mL, 1 week), the “Form by XRPD (1 week)” value is “Form E”. In addition, in data set [2] (slurry in water (magnetic stirring) 1 mL, 3 weeks), the “Form by XRPD (3 weeks)” value is reported as “Form B”. For the same compound, the “XRPD (1 week): form” value in data set [3] (B, C and D in THF (1.0 mL)) is “Form E”. The “XRPD (1 week): form” value in data set [3] (C, D and E in water (1.0 mL)) is recorded as “Form F”. Also, the “solid state stability after one week of storage at 60° C. (in words, HPLC and XRPD)” value (“solid state stability after one week” below) in data set [4] (60° C., one week) is “stable by XRPD and HPLC”. Further, in data set [4] (setting [8]), the “HPLC (% purity) after thermal stress” value is recorded as 100.0%, the “XRPD (1 week): crystallinity” value is on record as “Crystalline” and the “XRPD (1 week): form” value is “(Form A)”. For the same compound, in data set [5], the “Visual inspection (2 week)” value is “No deli-” and the “stability after two weeks of storage at elevated relative humidity (in words)” value is “no sign of deliquescence or change in crystalline form”. In data set [6], the “form by XRPD after overnight slurry in water” value (from here on “form by XRPD … in water”) is listed as “Form B”.

For the compound `Brc1c(NC2=NCCN2)ccc2nccnc12.Brc1c(NC2=NCCN2)ccc2nccnc12.O=C(O)c1cc2ccccc2c(Cc2c(O)c(C(=O)O)cc3ccccc23)c1O` [Form B, brimonidine hemi-pamoate], in data set [1], the “water content stabilized between 20-90% RH” value is 5-6 wt % and the “XRPD pattern” value is “consistent with Form B”. Moreover, in data set [1] (moisture sorption), the “water adsorbed at 60% RH” value turned out to be 5.4 wt % and the “water adsorbed at 90% RH” value came out at 5.8 wt %. Moreover, the “XRPD (1 week): form” value in data set [3] (B, C and D in THF (1.0 mL)) is on record as “Form E”. In data set [4], the “solid state stability after one week” value is “no degradation or signs of form conversion”. Besides, in data set [4] (setting [8]), the “HPLC (% purity) after thermal stress” value is 100.0%, the “XRPD (1 week): crystallinity” value is recorded as “Crystalline” and the “XRPD (1 week): form” value was “(Form B)”.

As for `Brc1c(NC2=NCCN2)ccc2nccnc12.Brc1c(NC2=NCCN2)ccc2nccnc12.O=C(O)c1cc2ccccc2c(Cc2c(O)c(C(=O)O)cc3ccccc23)c1O` [Form C, brimonidine hemi-pamoate], in data set [1], the “XRPD pattern” value is “consistent with Form C”, the “hygroscopicity (in words)” value is “moderately hygroscopic” and the observation upon desorption entry is listed as “no hysteresis or indication of hydrate formation”. Moreover, in data set [1] (moisture sorption), the “water adsorbed at 60% RH” value is reported as 4.6 wt % and the “water adsorbed at 90% RH” value was 13.0 wt %. For the same compound, in data set [3] (B, C and D in THF (1.0 mL)), the “XRPD (1 week): form” value was “Form E”. Also, the “XRPD (1 week): form” value in data set [3] (C, D and E in water (1.0 mL)) was “Form F”. The “solid state stability after one week” value in data set [4] (60° C., one week) was “no significant degradation or signs of form conversion”. Besides, in data set [4] (setting [8]), the “HPLC (% purity) after thermal stress” value is 97.9%, the “XRPD (1 week): crystallinity” value is listed as “Semi-cryst” and the “XRPD (1 week): form” value is given as “(Form C)”. In data set [5], the “Visual inspection (2 week)” value is “No deli-”. For the same compound, in data set [6], the “form by XRPD … in water” value is “mixture of Forms B and F”.

For the compound `Brc1c(NC2=NCCN2)ccc2nccnc12.Brc1c(NC2=NCCN2)ccc2nccnc12.O=C(O)c1cc2ccccc2c(Cc2c(O)c(C(=O)O)cc3ccccc23)c1O` [Form D, brimonidine hemi-pamoate], in data set [1], the “XRPD pattern” value is recorded as “consistent with Form D”, the “hygroscopicity (in words)” value is on record as “slightly hygroscopic” and the observation upon desorption entry was “no hysteresis or indication of hydrate formation”. In addition, in data set [1] (moisture sorption), the “water adsorbed at 60% RH” value is reported as 1.8 wt % and the “water adsorbed at 90% RH” value was 2.6 wt %. The “XRPD (1 week): form” value in data set [3] (B, C and D in THF (1.0 mL)) is reported as “Form E”. In addition, the “XRPD (1 week): form” value in data set [3] (C, D and E in water (1.0 mL)) is “Form F”. The “solid state stability after one week” value in data set [4] (60° C., one week) is reported as “no significant degradation or signs of form conversion”. In data set [4] (setting [8]), the “HPLC (% purity) after thermal stress” value came out at 96.7%, the “XRPD (1 week): crystallinity” value was “Crystalline” and the “XRPD (1 week): form” value is “(Form D)”. For the same compound, the “form by XRPD … in water” value in data set [6] was “mixture of Forms B and F”.

Consider `Brc1c(NC2=NCCN2)ccc2nccnc12.Brc1c(NC2=NCCN2)ccc2nccnc12.O=C(O)c1cc2ccccc2c(Cc2c(O)c(C(=O)O)cc3ccccc23)c1O` [Form E, brimonidine hemi-pamoate], for which, in data set [1], the “XRPD pattern” value is “consistent with Form E”, the “hygroscopicity (in words)” value is “slightly hygroscopic” and the observation upon desorption result is “no hysteresis or indication of hydrate formation”. Moreover, in data set [1] (moisture sorption), the “water adsorbed at 60% RH” value is 3.1 wt % and the “water adsorbed at 90% RH” value turned out to be 4.2 wt %. In data set [3], the “relative stability (conclusion from competitive slurries)” value is reported as “most stable anhydrate form”. Also, in data set [3] (C, D and E in water (1.0 mL)), the “XRPD (1 week): form” value is listed as “Form F”. Besides, in data set [4] (60° C., one week), the “solid state stability after one week” value was “no significant degradation or signs of form conversion”. In data set [4] (setting [9]), the “HPLC (% purity) after thermal stress” value came out at 100.0%, the “XRPD (1 week): crystallinity” value is on record as “Semi-cryst” and the “XRPD (1 week): form” value is given as “(Form E)”. Moreover, the “form by XRPD … in water” value in data set [6] was “mixture of Forms B and F”.

With `Brc1c(NC2=NCCN2)ccc2nccnc12.Brc1c(NC2=NCCN2)ccc2nccnc12.O=C(O)c1cc2ccccc2c(Cc2c(O)c(C(=O)O)cc3ccccc23)c1O` [Form F, brimonidine hemi-pamoate], the “XRPD pattern” value in data set [1] is on record as “consistent with Form F”. For the same compound, in data set [1] (moisture sorption, 40% RH), the “water adsorbed at 40% RH” value is given as “approximately 1.8 molar equivalent”. The “relative stability (conclusion from competitive slurries)” value in data set [3] is “more stable in water than Forms A, C, D and E”. In data set [5], the “Visual inspection (2 week)” value was “No deli-” and the “stability after two weeks of storage at elevated relative humidity (in words)” value is listed as “no sign of deliquescence or change in crystalline form”. In addition, the “form by XRPD … in water” value in data set [6] is “mixture of Forms B and F”.

On to `Brc1c(NC2=NCCN2)ccc2nccnc12` [brimonidine freebase, 5-bromo-6-(2-imidazolidinylideneamino)quinoxaline], for which the “solubility in water (in words)” value in data set [7] (water) is on record as “negligible”.

As for brimonidine tartrate, in data set [7] (pH 7.0 phosphate buffer), the “solubility in a pH 7.0 phosphate buffer” value is given as 2.4 mg/mL. The solubility in water in data set [7] (water) was 34 mg/mL.
